Literature values in US11497760B2, “Method for solubilizing poorly water-soluble dietary supplements and pharmaceutically active agents” (ATHENION AG, priority 2016, dated 2022).

Columns and labels:
human CYP3A4 = human CYP3A4 (Homo sapiens, UniProt P08684)
P-glycoprotein = P-glycoprotein (Homo sapiens, UniProt P08183)
Sequence of P-glycoprotein (P08183 whole entry): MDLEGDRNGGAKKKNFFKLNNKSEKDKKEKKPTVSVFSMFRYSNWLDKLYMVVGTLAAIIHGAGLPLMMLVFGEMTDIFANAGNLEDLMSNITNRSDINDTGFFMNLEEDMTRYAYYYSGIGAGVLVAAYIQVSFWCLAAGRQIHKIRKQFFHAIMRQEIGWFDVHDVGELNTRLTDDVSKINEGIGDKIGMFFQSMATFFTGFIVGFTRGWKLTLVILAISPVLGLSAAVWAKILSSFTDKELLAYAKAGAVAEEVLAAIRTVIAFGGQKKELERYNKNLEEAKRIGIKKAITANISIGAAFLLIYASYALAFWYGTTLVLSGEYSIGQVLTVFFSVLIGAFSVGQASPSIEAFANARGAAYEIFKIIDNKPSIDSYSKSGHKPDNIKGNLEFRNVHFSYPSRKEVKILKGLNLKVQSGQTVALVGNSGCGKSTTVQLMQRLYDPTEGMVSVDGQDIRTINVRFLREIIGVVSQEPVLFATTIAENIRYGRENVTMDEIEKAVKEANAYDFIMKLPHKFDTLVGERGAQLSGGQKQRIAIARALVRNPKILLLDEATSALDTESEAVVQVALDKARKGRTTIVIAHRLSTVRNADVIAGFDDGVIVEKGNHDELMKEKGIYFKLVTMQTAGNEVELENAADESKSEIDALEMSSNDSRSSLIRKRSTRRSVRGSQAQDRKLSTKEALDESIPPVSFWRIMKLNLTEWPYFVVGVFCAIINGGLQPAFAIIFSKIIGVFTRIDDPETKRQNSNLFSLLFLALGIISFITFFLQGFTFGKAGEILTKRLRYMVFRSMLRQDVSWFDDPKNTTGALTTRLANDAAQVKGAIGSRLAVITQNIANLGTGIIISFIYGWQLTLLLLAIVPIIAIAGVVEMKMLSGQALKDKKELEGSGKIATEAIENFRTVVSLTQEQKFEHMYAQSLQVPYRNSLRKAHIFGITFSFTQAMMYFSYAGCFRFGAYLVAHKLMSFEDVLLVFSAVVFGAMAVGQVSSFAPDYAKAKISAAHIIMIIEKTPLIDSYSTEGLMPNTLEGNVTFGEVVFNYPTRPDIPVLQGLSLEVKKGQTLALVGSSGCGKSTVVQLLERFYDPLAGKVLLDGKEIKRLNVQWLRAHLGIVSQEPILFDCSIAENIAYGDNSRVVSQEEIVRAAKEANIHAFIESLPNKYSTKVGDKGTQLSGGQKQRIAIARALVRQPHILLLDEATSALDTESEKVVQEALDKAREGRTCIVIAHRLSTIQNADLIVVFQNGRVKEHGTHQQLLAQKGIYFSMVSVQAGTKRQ

Sequence of human CYP3A4 (P08684 whole entry): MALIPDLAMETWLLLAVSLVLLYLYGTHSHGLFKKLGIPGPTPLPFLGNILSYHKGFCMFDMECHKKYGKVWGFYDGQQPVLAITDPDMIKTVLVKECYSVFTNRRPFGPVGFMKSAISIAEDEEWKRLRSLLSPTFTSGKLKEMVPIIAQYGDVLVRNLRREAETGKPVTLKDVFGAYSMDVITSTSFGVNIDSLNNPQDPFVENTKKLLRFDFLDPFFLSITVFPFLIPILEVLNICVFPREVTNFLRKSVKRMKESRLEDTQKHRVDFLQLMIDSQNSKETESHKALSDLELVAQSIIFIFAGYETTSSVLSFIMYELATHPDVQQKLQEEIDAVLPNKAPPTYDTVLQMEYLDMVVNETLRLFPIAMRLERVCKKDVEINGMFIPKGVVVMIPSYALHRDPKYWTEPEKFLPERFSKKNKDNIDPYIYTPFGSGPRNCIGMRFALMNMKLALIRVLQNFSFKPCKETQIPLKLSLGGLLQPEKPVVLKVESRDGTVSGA

inhibition of human CYP3A4 (human CYP3A4): inhibit
inhibition of P-glycoprotein (P-glycoprotein): inhibit
SMILES: O=C(C=CC=Cc1ccc2c(c1)OCO2)N1CCCCC1 [Piperine, 1-[5-(1,3-benzodioxol-5-yl)-1-oxo-2,4-pentadienyl]piperidine]
